Key:
[1] = biological target: T1, HIV-1 RT resistant mutant K103N/Y181C (Human immunodeficiency virus type 1 group M subtype B, UniProt P04585, K690N/Y768C); test: Reverse transcriptase (RT) enzymatic assay (IC50), PicoGreen fluorescence, resistant mutant; format: biochemical
T1 construct: The reverse transcriptase (RT) enzyme assay has been adapted to a 96-well microtiter plate format
Description: (§1) Reverse Transcriptase (RT) Assays Enzymatic Assay (IC50)
The enzymatic assay employed is described as follows: The reverse transcriptase (RT) enzyme assay has been adapted to a 96-well microtiter plate format and uses PicoGreen™ as a fluorescent intercalator. More explicitly, the HIV-1 RT enzyme was thawed and appropriately diluted into Tris/HCl 50 mM pH 7.8 containing NaCl 60 mM, MgCl2∘6H2O 2 mM, DTT 6 mM, GSH 2 mM and 0.02% w/v Chaps to give ≈10 nM enzyme. To 10 μL of this enzyme solution was added 10 μL of inhibitor solution (40 μM to […] inhibitor in the same assay buffer as above containing 4% v/v DMSO). The plate was pre-incubated for 15 minutes at room temperature before proceeding to the next step. In this pre-incubation step, the highest and lowest inhibitor concentrations were 20 μM and 1.016 nM respectively and the concentration of DMSO was 2% v/v. Then the enzymatic reaction was initiated by addition of 20 μL of substrate solution. The final reaction mixture contained Tris/HCl 50 mM pH 7.8, NaCl 60 mM, MgCl2∘6H2O 2 mM, DTT 6 mM, GSH 2 mM, CHAPS 0.02% w/v, DMSO 1% v/v, poly rC 45 nM, dG15 4.5 nM, dGTP 3.6 μM, and ≈2.5 nM enzyme. In this incubation step, the highest and lowest inhibitor concentrations were 10 μM and 0.508 nM respectively. After addition of the substrate cocktail, the plate was covered with a plastic seal and incubated for 50 minutes at 37° C. in a dry incubator. The reaction was then quenched by addition of 5 μL of EDTA 0.5 M. The plate was shaken for 30 seconds at medium speed and incubated for 5 minutes at room temperature. Then 160 μL of PicoGreen™ 1:400 dilution from commercial stock (diluted in Tris 20 mM pH 7.5 with EDTA 1 mM) was added and the plate was shaken for 30 seconds and incubated for 10 minutes at room temperature. The plate was then analyzed using a POLARstar Galaxy fluorimeter (BMG Labtechnologies) with λex and λem of 485 nm and 520 nm respectively. […] Each row contained at its extremities a blank and a control well.
(§2) Table legend: A=>100; B=100-50; C=<50; NT=not tested

[2] = biological target: T2, HIV-1 RT enzyme (wild type) (Human immunodeficiency virus type 1 group M subtype B, UniProt P04585); test: Reverse transcriptase (RT) enzymatic assay (IC50), PicoGreen fluorescence, wild type; format: biochemical; settings: RT enzymatic assay, wild type; read-out: IC50 WT
T2 construct: The reverse transcriptase (RT) enzyme assay has been adapted to a 96-well microtiter plate format
Description: as §1
The enzymatic assay employed is described as follows: The reverse transcriptase (RT) enzyme assay has been adapted to a 96-well microtiter plate format and uses PicoGreen™ as a fluorescent intercalator. More explicitly, the HIV-1 RT enzyme was thawed and appropriately diluted into Tris/HCl 50 mM pH 7.8 containing NaCl 60 mM, MgCl2∘6H2O 2 mM, DTT 6 mM, GSH 2 mM and 0.02% w/v Chaps to give ≈10 nM enzyme. […] The plate was pre-incubated for 15 minutes at room temperature before proceeding to the next step. […] Then the enzymatic reaction was initiated by addition of 20 μL of substrate solution. […] After addition of the substrate cocktail, the plate was covered with a plastic seal and incubated for 50 minutes at 37° C. in a dry incubator. The reaction was then quenched by addition of 5 μL of EDTA 0.5 M. The plate was shaken for 30 seconds at medium speed and incubated for 5 minutes at room temperature. Then 160 μL of PicoGreen™ 1:400 dilution from commercial stock (diluted in Tris 20 mM pH 7.5 with EDTA 1 mM) was added and the plate was shaken for 30 seconds and incubated for 10 minutes at room temperature. […] Each row contained at its extremities a blank and a control well.
as §2

[3] = test system: HIV-1 resistant mutant K103N/Y181C in C8166 LTRluc cells; test: C8166 HIV-1 luciferase assay (EC50), resistant mutant; format: cell-based; settings: Human immunodeficiency virus 1, C8166, read-out: EC50 K103N/Y181C
Excerpt: (§3) C8166 HIV-1 Luciferase Assay (EC50)
(§4) Plasmid: pGL3 Basic LTR/TAR #12
(§5) C8166 cells are a human T-lymphotrophic virus type 1 immortalized but nonexpressing line of cord blood lymphocytes and are highly permissive to HIV-1 infection. The reporter cells were made by electroporating C8166 cells with pGL3 Basic LTR/TAR and then selecting positive clones with blasticidine. The clone C8166-LTRluc #A8-F5-G7 was selected by 3 consecutive rounds of limiting dilution under blasticidine selection.
(§6) Media: Complete media consisting of: RPMI 1640+10% FBS+10^−5 M
(§7) β-mercaptoethanol+10 μg/ml gentamycin. Cultures are maintained in complete media with 5 μg/ml blasticidine, however, selection is removed for the assay.
(§8) Luciferase Assay Protocol
(§9) Eleven serial dilutions of 2.5× are made at 8× desired final concentration in a 1 ml deep well titer plate (96 wells). The 12th well contains complete media with no inhibitor and serves as the positive control. All samples contain the same concentration of DMSO (≦0.1% DMSO). A 25 μl aliquot of inhibitor is added, to triplicate wells, of a 96 well tissue culture treated clear view black microtiter plate (Corning Costar catalogue # 3904). The last row is reserved for uninfected C8166 LTRluc cells to serve as the background blank control and the first row is media alone.
Count C8166 LTRluc cells and place in a minimal volume of complete RPMI 1640 in a tissue culture flask (ex. 30×10^6 cells in 10 ml media/25 cm^2 flask). […] Incubate cells for 1.5 hours at 37° C. on a rotating rack in a 5% CO2 incubator. Resuspend cells in complete RPMI to give a final concentration of 25,000-cells/175 μl. Add 175 μl of cell mix to wells of 96 well microtiter plate containing 25 μl 8× inhibitors. Add 25,000 uninfected C8166-LTRluc cells/well in 200 μl complete RPMI to last row for background control. Incubate cells at 37° C. in 5% CO2 incubator for 3 days.
(§10) Add 50 μl Steady Glo (luciferase substrate T1/2=5 hours Promega catalogue # E2520) to each well of the 96 well plate. Determine the relative light units (RLU) of luciferase using the BMG LUMlstar Galaxy luminometer. Plates are read from the bottom for 2 seconds per well with a gain of 240.
(§11) The level of inhibition (% inhibition) of each well containing inhibitor was calculated with the following equation: […]
The calculated % inhibition values were then used to determine EC50, slope factor (n) and maximum inhibition (Imax) by the non-linear regression routine NLIN procedure of SAS using the following equation:
as §2

[4] = test system: HIV-1 (wild type) in C8166 LTRluc cells; test: C8166 HIV-1 luciferase assay (EC50), wild type; format: cell-based; settings: Human immunodeficiency virus 1, C8166 HIV-1 luciferase assay (no *)
Excerpt: as §3, §4
Plasmid is the pGL3 Basic Vector (a promoterless luciferase expression vector from Promega catalogue #E1751) with the addition of HIV-1 H×B2 LTR sequence from nucleotide −138 to +80 (Sca1-HindIII) upstream of the luciferase gene and the gene for blasticidine resistance cloned in.
as §5, §6, §7, §8
as §9, with “Serial dilutions of HIV-1 inhibitors compounds are prepared in complete media from 10 mM DMSO stock solutions. Eleven” for “Eleven”
Count C8166 LTRluc cells and place in a minimal volume of complete RPMI 1640 in a tissue culture flask (ex. 30×10^6 cells in 10 ml media/25 cm^2 flask). Infect cells with HIV-1 at a moi of 0.005. Incubate cells for 1.5 hours at 37° C. on a rotating rack in a 5% CO2 incubator. Resuspend cells in complete RPMI to give a final concentration of 25,000-cells/175 μl. Add 175 μl of cell mix to wells of 96 well microtiter plate containing 25 μl 8× inhibitors. Add 25,000 uninfected C8166-LTRluc cells/well in 200 μl complete RPMI to last row for background control. Incubate cells at 37° C. in 5% CO2 incubator for 3 days.
as §10, §11
The calculated % inhibition values were then used to determine EC50, slope factor (n) and maximum inhibition (Imax) by the non-linear regression routine NLIN procedure of SAS using the following equation: […]
The results are listed in Table 9 as IC50(nM) and EC50 (nM).
as §2

SMILES: OC(COc1ccccc1Cl)CSc1nnnn1-c1cccc2ccccc12 (stereo not shown) [Entry 325]
- IC50 [1]: > 100 nM
- IC50 [2]: > 100 nM

SMILES: CC(C)c1ccc(-n2nnnc2SCC(=O)Nc2ccccc2[N+](=O)[O-])cc1 [Entry 142]
- EC50 [3]: > 100 nM
- IC50 [1]: > 100 nM
- EC50 [4]: < 50 nM

SMILES: O=C(CSc1nnnn1-c1ccccc1)Nc1ccccc1[N+](=O)[O-] [Entry 108]
- IC50 [1]: > 100 nM
- IC50 [2]: > 100 nM

SMILES: O=C(CSc1nc2ccccc2n1-c1cccc2ccccc12)Nc1ccccc1[N+](=O)[O-] [Entry 411]
- IC50 [1]: > 100 nM
- IC50 [2]: > 100 nM

SMILES: O=C(CSc1nnnn1-c1cccc2ccccc12)Nc1ccccc1O [Entry 211]
- EC50 [3]: > 100 nM
- EC50 [4]: < 50 nM
- IC50 [2]: > 100 nM

SMILES: Cc1ccc(-n2nnnc2SCC(=O)Nc2cccnc2Cl)c(Cl)c1 [Entry 803]
- EC50 [3]: > 100 nM
- IC50 [1]: > 100 nM
- EC50 [4]: < 50 nM

SMILES: CCc1nnc(SCC(=O)Nc2ccccc2[N+](=O)[O-])n1-c1cccc2ccccc12 [Entry 425]
- EC50 [3]: > 100 nM
- IC50 [1]: > 100 nM
- EC50 [4]: < 50 nM

SMILES: COc1ccc(NC(=O)CSc2nnnn2-c2cccc3ccccc23)c(Cl)c1 [Entry 237]
- IC50 [1]: > 100 nM
- EC50 [4]: < 50 nM
- IC50 [2]: < 50 nM

SMILES: O=C(CSc1nnnn1-c1cccc(Cl)c1)Nc1ccccc1[N+](=O)[O-] [Entry 119]
- IC50 [1]: > 100 nM
- IC50 [2]: > 100 nM

SMILES: Cc1ccc(-n2nnnc2SCC(=O)Nc2ccccc2Cl)c(Cl)c1 [Entry 501]
- EC50 [3]: > 100 nM
- EC50 [4]: < 50 nM

SMILES: Cc1ccc(-n2nnnc2SCC(=O)Nc2ccccc2Cl)c(Br)c1 [Entry 701]
- IC50 [1]: > 100 nM
- IC50 [2]: < 50 nM

SMILES: Cc1ccc(-n2c(C)nnc2SCC(=O)Nc2ccc(-c3ccccc3)cc2Cl)c(Cl)c1 [Entry 428]
- EC50 [3]: > 100 nM
- IC50 [1]: > 100 nM
- EC50 [4]: < 50 nM

SMILES: COC(=O)c1ccc(NC(=O)CSc2nnnn2-c2ccc(C)cc2Cl)c([N+](=O)[O-])c1 [Entry 506]
- IC50 [1]: > 100 nM
- IC50 [2]: < 50 nM

SMILES: CC(C)c1ccccc1-n1nnnc1SCC(=O)Nc1ccccc1[N+](=O)[O-] [Entry 112]
- IC50 [1]: > 100 nM
- IC50 [2]: > 100 nM

SMILES: CCc1ccccc1-n1nnnc1SCC(=O)Nc1ccccc1[N+](=O)[O-] [Entry 110]
- IC50 [1]: > 100 nM
- IC50 [2]: > 100 nM

SMILES: Cc1ccc(C)c(NC(=O)CSc2nnnn2-c2cccc3ccccc23)c1 [Entry 240]
- IC50 [1]: > 100 nM
- IC50 [2]: > 100 nM

SMILES: O=C(CSc1ccccc1-c1cccc2ccccc12)Nc1ccccc1Cl [Entry 406, 2-{{2-(1-Naphthalenyl)phenyl}thio}-N-(2-chorophenyl)acetamide]
- IC50 [1]: > 100 nM
- EC50 [4]: > 100 nM
- IC50 [2]: < 50 nM

SMILES: Cc1ccc(-n2c(C)nnc2SCC(=O)Nc2ccccc2[N+](=O)[O-])c(Cl)c1 [Entry 427]
- EC50 [3]: > 100 nM
- IC50 [1]: > 100 nM
- EC50 [4]: < 50 nM

SMILES: CC(C)(C)c1ccc(-n2nnnc2SCC(=O)Nc2ccc(S(C)(=O)=O)cc2Cl)c(Cl)c1 [Entry 603]
- EC50 [3]: < 50 nM
- EC50 [4]: < 50 nM

SMILES: COC(=O)c1ccc(NC(=O)CSc2ccccc2-c2ccc(C)cc2Cl)c(Cl)c1 [Entry 418]
- IC50 [1]: > 100 nM
- EC50 [4]: 50 to 100 nM
- IC50 [2]: < 50 nM

SMILES: O=C(CSc1nnnn1-c1cccc2ccccc12)Nc1ccccc1Cl [Entry 208, N-(2-Chlorophenyl)-2-{{1-(1-naphthalenyl)-1H-tetrazol-5-yl}thio}acetamide]
- EC50 [3]: > 100 nM
- EC50 [4]: < 50 nM

SMILES: Cc1ccc(NC(=O)CSc2nnnn2-c2ccc(C)cc2Cl)c(Cl)c1 [Entry 502]
- IC50 [1]: > 100 nM
- EC50 [4]: < 50 nM
- IC50 [2]: < 50 nM

SMILES: O=C(CSc1nnnn1-c1ccc(Cl)cc1Cl)Nc1ccccc1[N+](=O)[O-] [Entry 126]
- IC50 [1]: > 100 nM
- IC50 [2]: > 100 nM

SMILES: O=C(CSc1nnnn1-c1ccc(Cl)c(C(F)(F)F)c1)Nc1ccccc1[N+](=O)[O-] [Entry 137]
- IC50 [1]: > 100 nM
- IC50 [2]: > 100 nM

SMILES: O=C(COc1ccccc1-c1ccccc1)Nc1ccccc1[N+](=O)[O-] [Entry 413]
- IC50 [1]: > 100 nM
- IC50 [2]: > 100 nM

SMILES: Cc1ccc(-c2ccccc2SCC(=O)Nc2ccc(C(=O)O)cc2Cl)c(Cl)c1 [Entry 419]
- IC50 [1]: > 100 nM
- EC50 [4]: 50 to 100 nM
- IC50 [2]: < 50 nM

SMILES: Cc1ccccc1NC(=O)CSc1nnnn1-c1cccc2ccccc12 [Entry 202]
- IC50 [1]: > 100 nM
- IC50 [2]: > 100 nM

SMILES: O=C(CSc1nnnn1-c1cccc2ccccc12)Nc1ccccc1 [Entry 201]
- IC50 [1]: > 100 nM
- IC50 [2]: > 100 nM
